The values that follow are results of earlier work, collected in PMC12426930, “Antioxidant, Hypotensive, and Antidiabetic Breakthroughs: Bromelain Hydrolysis Unlocks Quinoa’s Peptide Potential - In Silico and In Vitro Approach” (Journal of Agricultural and Food Chemistry, 2025).

In this data set the test system is DPP-IV. Also on record: method as in Vilcacundo et al. [40]. To be noted: 250 μM; ref Vilcacundo et al. [40]; cited from earlier work.

On to “IQAQGGLT [DPP-IV quinoa-derived peptide reported by Vilcacundo et al]”, for which the DPP-IV inhibition is on record as 17.05%.
